The source made the active and inactive calls.
Experiments:
[1] = molecular target: Sphingosine 1-phosphate receptor 2 (Homo sapiens, UniProt O95136); test: Dose Response Cell Based Assay for Agonists of the S1P2 Receptor. [Related pubchem assays: 729, 736, 843 ]; type: functional
Bcl-2-related protein A1 [2] = molecular target: T1, Bcl-2-related protein A1 (Mus musculus, UniProt Q07440); test: small-molecule antagonists of Bfl-1/BH3 interaction – biochemical, TR-FRET, mouse Bfl-1, confirmation (AID 621);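 also: TR-FRET binding of GST-Bfl-1 to FITC-labelled Bid peptide via terbium antibody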
T1 sequence (Q07440 whole entry): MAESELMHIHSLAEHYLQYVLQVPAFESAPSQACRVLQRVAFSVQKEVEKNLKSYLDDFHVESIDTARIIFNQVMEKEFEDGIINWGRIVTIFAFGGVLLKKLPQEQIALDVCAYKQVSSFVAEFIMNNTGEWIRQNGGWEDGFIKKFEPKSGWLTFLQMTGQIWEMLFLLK

Bcl-2-related protein A1 [3] = molecular target: T1, Bcl-2-related protein A1; test: Bfl-1 binding inhibitors, SAR follow-up, biochemical, fluorescence polarization (AID 1070)
[4] = molecular target: Glyceraldehyde-3-phosphate dehydrogenase (Homo sapiens, UniProt P04406)
Glyceraldehyde-3-phosphate dehydrogenase, sequence (P04406 whole entry, the tested form may be a part): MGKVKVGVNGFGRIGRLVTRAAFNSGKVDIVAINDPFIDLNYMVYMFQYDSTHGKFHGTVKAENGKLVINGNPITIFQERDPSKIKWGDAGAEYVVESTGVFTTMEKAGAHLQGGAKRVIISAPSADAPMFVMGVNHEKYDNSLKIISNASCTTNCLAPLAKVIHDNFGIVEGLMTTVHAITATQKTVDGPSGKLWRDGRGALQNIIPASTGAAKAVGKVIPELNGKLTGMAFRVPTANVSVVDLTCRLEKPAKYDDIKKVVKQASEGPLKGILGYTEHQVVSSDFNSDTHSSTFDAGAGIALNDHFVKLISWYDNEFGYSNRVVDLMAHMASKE

[5] = viability loss in CEM21 cells – cell-based, CellTiter-Glo luminescence, cherry-picked, cytotoxicity control for viral fusion inhibitor project, dose response (AID 652042); type: functional;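 also: potency for signal decrease meaning cytotoxicity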
[6] = viability loss in HeLa cells – cytotoxicity control for MgcRacGAP inhibitor project, dose response (AID 624300); type: functional
[7] = viability loss in Vero cells – cytotoxicity control for Vif-APOBEC3G degradation inhibitor project, dose response (AID 1117358); type: functional; conditions: Vero
[8] = blockers of HIV-1 envelope-mediated cell-cell fusion – cherry-pick, dose response (AID 652057); type: functional, cell-based
[9] = molecular target: E3 ubiquitin-protein ligase Mdm2 (Homo sapiens, UniProt Q00987); test: MDM2-luc reporter signal enhancers, multi-concentration potency testing, MDM2 ubiquitin-protein ligase inhibitor program, whole-cell format, luminescence detection, 384-well microplate (AID 1394); type: functional;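 also: MDM2 E3 inhibitors raise luminescence so EC50 is for signal enhancement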
E3 ubiquitin-protein ligase Mdm2, sequence (Q00987 whole entry): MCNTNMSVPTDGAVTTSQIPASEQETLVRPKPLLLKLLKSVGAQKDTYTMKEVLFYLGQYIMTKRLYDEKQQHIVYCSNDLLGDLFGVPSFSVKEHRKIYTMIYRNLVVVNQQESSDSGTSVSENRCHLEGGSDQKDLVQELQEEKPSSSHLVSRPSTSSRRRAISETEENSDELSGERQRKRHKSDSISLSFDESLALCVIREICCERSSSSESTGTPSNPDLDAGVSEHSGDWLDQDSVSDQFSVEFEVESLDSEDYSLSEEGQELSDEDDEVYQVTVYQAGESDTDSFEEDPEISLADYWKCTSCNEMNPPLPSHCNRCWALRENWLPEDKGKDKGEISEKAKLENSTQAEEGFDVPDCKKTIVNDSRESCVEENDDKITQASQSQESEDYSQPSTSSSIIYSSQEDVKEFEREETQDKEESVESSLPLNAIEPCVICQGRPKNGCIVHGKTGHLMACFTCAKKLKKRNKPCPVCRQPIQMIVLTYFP

Streptococcus = test: GAS UMAA2166 growth inhibition – luminescence, BacTiterGlo, counter-screen for streptokinase expression inhibitor project, dose response (AID 1915); type: functional, organism-based;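 also: potency for reduction of bacterial viability or growth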
[10] = molecular target: T2, Carboxy-terminal domain RNA polymerase II polypeptide A small phosphatase 1 (Homo sapiens, UniProt Q9GZU7); test: CTDSP1 inhibitors, concentration-response, biochemical, absorbance readout, ultra-high-throughput screen actives (AID 540297); type: functional
T2 sequence (Q9GZU7 whole entry): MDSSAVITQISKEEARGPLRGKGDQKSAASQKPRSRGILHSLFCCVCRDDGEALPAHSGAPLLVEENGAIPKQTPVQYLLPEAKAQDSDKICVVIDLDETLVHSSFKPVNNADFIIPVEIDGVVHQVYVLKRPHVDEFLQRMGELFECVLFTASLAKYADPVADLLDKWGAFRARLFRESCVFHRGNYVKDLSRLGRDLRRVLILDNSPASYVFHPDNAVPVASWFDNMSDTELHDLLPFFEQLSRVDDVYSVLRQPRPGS

Streptokinase A = molecular target: T3, Streptokinase A (Streptococcus pyogenes serotype M1, UniProt P10520); test: viability-normalized secreted streptokinase activity reduction – plasminogen activation absorbance, OD405, dose response (AID 1914); type: functional, Streptococcus pyogenes M1 GAS;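 also: secreted streptokinase activity via plasminogen activation per viability signal from cell pellet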
T3 sequence (P10520 whole entry): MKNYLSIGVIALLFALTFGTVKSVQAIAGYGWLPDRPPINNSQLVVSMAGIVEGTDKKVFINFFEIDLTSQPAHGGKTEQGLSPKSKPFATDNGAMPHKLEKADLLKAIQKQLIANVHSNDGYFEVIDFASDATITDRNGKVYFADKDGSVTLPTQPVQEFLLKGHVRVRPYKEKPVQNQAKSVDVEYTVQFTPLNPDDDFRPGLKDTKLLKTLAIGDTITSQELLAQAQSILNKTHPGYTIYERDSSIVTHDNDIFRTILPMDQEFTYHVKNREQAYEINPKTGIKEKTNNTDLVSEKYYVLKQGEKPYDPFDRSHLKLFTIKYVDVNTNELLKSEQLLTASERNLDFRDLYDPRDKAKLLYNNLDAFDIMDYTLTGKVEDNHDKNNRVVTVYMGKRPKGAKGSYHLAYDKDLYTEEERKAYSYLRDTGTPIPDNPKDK

[11] = system: Streptococcus sp. 'group A'; test: Streptococcus pyogenes SK(-)GAS viability under kanamycin – luminescence, BacTiterGlo, confirmation, counter-screen for streptokinase expression inhibitor project, dose response (AID 1900); type: functional, organism-based
[12] = molecular target: Protein-tyrosine kinase 2-beta (Homo sapiens, UniProt Q14289);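 also: potency of inhibitors of PYK2 kinase phosphorylation of poly-GT substrate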
Protein-tyrosine kinase 2-beta, sequence (Q14289 whole entry): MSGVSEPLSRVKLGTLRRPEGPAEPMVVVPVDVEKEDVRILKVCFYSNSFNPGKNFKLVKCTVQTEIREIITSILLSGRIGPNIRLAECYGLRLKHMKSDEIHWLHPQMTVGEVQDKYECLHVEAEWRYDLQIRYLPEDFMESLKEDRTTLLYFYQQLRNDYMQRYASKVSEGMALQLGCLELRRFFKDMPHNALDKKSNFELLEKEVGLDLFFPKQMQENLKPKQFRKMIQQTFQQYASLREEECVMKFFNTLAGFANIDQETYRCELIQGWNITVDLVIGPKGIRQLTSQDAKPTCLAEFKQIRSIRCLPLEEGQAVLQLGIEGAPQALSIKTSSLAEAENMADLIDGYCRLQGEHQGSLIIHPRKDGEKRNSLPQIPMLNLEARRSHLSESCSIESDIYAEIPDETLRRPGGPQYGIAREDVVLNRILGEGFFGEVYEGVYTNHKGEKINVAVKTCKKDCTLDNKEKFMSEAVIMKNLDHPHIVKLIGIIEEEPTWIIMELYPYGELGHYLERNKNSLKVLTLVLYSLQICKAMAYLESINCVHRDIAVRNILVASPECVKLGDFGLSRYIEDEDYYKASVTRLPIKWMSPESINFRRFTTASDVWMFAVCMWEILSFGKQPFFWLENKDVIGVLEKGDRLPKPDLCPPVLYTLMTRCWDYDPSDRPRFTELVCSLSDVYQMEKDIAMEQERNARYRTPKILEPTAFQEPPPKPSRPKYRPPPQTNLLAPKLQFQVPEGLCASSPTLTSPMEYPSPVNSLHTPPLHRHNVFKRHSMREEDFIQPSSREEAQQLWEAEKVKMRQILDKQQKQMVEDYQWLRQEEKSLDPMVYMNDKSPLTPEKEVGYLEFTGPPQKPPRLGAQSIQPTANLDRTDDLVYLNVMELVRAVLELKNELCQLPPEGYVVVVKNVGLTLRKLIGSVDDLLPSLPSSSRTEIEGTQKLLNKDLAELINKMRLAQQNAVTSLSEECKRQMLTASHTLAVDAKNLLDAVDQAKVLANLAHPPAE

Cytochrome P450 2C9 = Cytochrome P450 2C9 (Homo sapiens, UniProt P11712)
Cytochrome P450 2C9, sequence (P11712 whole entry): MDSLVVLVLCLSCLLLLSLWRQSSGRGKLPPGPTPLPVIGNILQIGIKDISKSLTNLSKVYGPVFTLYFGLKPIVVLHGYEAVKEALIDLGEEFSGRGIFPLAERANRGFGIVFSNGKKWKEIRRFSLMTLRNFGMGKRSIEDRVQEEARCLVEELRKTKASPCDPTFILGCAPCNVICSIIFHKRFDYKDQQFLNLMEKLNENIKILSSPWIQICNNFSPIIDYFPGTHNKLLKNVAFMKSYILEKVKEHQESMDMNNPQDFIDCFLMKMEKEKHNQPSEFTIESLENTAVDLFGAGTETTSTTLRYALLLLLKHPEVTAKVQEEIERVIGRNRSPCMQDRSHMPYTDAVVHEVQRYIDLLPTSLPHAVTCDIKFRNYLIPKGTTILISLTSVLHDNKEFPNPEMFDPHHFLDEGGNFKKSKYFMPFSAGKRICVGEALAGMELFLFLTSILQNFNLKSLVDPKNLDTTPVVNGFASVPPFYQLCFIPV

Cytochrome P450 3A4 = Cytochrome P450 3A4 (Homo sapiens, UniProt P08684);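 also: CYP3A4 tested as one member of a cytochrome P450 panel screen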
Cytochrome P450 3A4, sequence (P08684 whole entry): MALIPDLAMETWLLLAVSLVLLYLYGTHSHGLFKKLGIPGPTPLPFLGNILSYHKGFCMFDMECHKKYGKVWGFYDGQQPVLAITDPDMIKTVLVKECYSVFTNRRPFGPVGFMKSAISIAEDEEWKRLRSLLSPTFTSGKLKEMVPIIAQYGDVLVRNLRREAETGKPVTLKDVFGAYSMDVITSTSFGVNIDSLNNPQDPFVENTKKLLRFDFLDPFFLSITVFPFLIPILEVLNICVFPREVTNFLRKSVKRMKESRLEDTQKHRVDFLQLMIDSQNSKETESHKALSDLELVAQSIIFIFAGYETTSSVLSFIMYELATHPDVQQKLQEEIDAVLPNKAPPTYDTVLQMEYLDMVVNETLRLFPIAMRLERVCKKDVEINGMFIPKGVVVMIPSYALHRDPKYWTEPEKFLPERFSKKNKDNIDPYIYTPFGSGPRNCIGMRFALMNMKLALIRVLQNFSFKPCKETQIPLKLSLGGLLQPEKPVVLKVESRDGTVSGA

Cytochrome P450 1A2 = molecular target: T4, Cytochrome P450 1A2 (Homo sapiens, UniProt P05177);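 also: PubChem cytochrome P450 panel assay, CYP1A2 panel member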
T4 sequence (P05177 whole entry): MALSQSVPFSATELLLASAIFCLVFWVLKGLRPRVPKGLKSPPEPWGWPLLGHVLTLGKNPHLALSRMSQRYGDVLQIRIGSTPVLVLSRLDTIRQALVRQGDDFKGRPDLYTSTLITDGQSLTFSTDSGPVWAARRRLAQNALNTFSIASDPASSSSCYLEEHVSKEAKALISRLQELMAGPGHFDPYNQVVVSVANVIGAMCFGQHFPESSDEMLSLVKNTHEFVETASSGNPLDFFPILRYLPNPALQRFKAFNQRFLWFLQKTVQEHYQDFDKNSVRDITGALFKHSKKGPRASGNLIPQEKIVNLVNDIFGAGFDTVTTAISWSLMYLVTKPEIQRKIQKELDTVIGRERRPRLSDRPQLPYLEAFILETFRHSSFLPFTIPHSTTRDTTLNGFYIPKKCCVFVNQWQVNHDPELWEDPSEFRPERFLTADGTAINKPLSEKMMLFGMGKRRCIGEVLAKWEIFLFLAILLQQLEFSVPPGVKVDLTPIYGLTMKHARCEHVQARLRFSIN

Cytochrome P450 2C19 = Cytochrome P450 2C19 (Homo sapiens, UniProt P33261); test: Cytochrome panel assay with activity outcomes. Panel member name: p450-cyp2c19 Compounds with AC50 equal or less than 10 uM are considered active; type: functional; conditions: read-out: AC50
Cytochrome P450 2C19, sequence (P33261 whole entry): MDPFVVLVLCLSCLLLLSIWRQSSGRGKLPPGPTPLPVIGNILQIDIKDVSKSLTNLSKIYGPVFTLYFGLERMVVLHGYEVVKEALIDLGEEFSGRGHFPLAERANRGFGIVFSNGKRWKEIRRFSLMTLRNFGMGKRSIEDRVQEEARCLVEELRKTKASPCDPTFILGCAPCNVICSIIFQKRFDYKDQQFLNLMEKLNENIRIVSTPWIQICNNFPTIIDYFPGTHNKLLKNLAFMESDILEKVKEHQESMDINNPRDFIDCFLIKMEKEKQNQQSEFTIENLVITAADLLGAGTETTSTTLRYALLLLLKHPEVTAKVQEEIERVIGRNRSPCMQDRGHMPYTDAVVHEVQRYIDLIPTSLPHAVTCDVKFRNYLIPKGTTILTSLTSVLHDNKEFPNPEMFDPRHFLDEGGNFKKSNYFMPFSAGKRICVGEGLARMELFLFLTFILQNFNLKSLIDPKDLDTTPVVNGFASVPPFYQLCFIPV

Sphingosine 1-phosphate receptor 2, sequence (O95136 whole entry): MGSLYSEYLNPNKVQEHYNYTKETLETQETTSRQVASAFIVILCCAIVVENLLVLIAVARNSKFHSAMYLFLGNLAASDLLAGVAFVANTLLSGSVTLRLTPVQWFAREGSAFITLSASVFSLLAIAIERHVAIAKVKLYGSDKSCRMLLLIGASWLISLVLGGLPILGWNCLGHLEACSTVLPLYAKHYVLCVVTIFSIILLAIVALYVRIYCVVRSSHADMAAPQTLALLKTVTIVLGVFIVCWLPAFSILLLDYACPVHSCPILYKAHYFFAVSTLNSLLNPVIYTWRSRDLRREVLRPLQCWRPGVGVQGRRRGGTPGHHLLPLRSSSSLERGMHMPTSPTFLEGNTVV

Question: Which EC50 [1] does the source give for Cc1cc(-c2nnc(SCC(=O)NC3CCCC3)o2)no1 here?
Answer: > 50 µM (not active)

Question: With O=C1C(Cl)=C(N2CCN(Cc3ccc4c(c3)OCO4)CC2)C(=O)N1c1ccc([N+](=O)[O-])cc1 as the molecule, how does the IC50 (Bcl-2-related protein A1 [2]) read?
Answer: 4.59 µM (active)

Question: What about the IC50 (Bcl-2-related protein A1 [3]) of the same molecule?
Answer: 4.68 µM (active)

Question: What about the IC50 [4] of the same molecule?
Answer: > 100 µM (not active)

Question: Which AC50 [5] does the source give for COc1ccc2[nH]c3c(N4CCC(O)(c5cccc(C(F)(F)F)c5)CC4)ncnc3c2c1 here?
Answer: 7.3 µM (active)

Question: What about the CC50 [6] of the same molecule?
Answer: 33 µM (active)

Question: And the CC50 [7]?
Answer: 29.4 µM (active)

Question: What about the AC50 [8] of the same molecule?
Answer: 9.77 µM (active)

Question: Which EC50 [9] does the source give for Cc1ccsc1C1Nc2ccc3ncccc3c2C2=C1C(=O)CCC2 (stereo not drawn) here?
Answer: 25 µM (not active)

Question: Which results are given for COc1ccc(Cn2c(-c3ccco3)nc3oc4cc(OC)ccc4c(=O)c3c2=O)cc1?
Answer: EC50 (Streptococcus): > 150 µM (not active); IC50 [10]: 7.58 µM (active); EC50 (Streptokinase A): > 150 µM (not active); EC50 [11]: 25.5 µM (active); EC50 [1]: > 50 µM (not active)

Question: Which results are given for O=C1C(Cl)=C(N2CCN(c3ccc(F)cc3)CC2)C(=O)N1c1ccc(Cl)c(Cl)c1?
Answer: IC50 (Bcl-2-related protein A1 [2]): 19.1 µM (active); IC50 (Bcl-2-related protein A1 [3]): > 100 µM (not active)

Question: What does the source list for C=CCn1c(P(=O)(O)c2ccccc2)nc2ccccc21?
Answer: IC50 [12]: 26.6 µM (not active); AC50 (Cytochrome P450 2C9): 25.1 µM (inconclusive); AC50 (Cytochrome P450 3A4): inconclusive; AC50 (Cytochrome P450 1A2): 15.8 µM (inconclusive); AC50 (Cytochrome P450 2C19): 6.31 µM (inconclusive)

Question: For COC(=O)C(C(=O)Nc1ccc(OC)cc1)C1CCCCCC1 (stereo not drawn), which CC50 [7] is on record?
Answer: > 40 µM (active)

Question: For NC(=O)c1c(NC(=O)C2CCCO2)sc2c1CCCC2 (stereo not drawn), which EC50 [9] is on record?
Answer: 7.26 µM (not active)

— ChEMBL document CHEMBL1201862, “PubChem BioAssay data set” (2004)
